From patent publication US7186879B2, “Screening systems and methods for identifying modulators of xenobiotic metabolism” (Baylor College of Medicine, priority 2001, dated 2007)
“Also recorded” adds a separate entry of the source. One block for each molecule: values may come before it.

Key:
CAR [1] = biological target: T1, CAR (Mus musculus, UniProt O35627, M138L); experiment: Hepatoprotection after APAP (serum ALT, histology); details: for protective effect, androstanol compared with N-acetylcysteine: wild-type mice, one and three hours after APAP 500 mg/kg, androstanol 100 mg/kg, N-acetylcysteine 1 g/kg
T1 sequence (O35627 1-358 M138L): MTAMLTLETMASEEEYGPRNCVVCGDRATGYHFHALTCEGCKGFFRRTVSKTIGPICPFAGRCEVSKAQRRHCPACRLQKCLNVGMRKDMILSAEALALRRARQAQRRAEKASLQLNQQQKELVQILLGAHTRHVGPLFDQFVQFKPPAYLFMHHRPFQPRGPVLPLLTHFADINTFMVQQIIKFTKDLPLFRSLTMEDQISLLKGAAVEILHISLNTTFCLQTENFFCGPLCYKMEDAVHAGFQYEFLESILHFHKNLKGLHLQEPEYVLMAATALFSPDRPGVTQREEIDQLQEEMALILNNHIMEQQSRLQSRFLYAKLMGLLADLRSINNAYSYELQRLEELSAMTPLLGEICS
Protocol: (§1) Wild-type mice (n=3 per group) were administered a 500 mg/kg dose of APAP by intraperitoneal injection.
(§2) For comparison, N-acetylcysteine (1 g/kg, purchased from Sigma and dissolved in PBS) was administered intraperitoneally to other mice.

murine CAR receptor [2] = biological target: T2, murine CAR receptor (Mus musculus, UniProt O35627); experiment: Ligand activity on murine CAR receptor
T2 sequence (O35627 1-358 M138L): T1 sequence (O35627 1-358 M138L)

human CAR [3] = biological target: T3, human CAR (Homo sapiens, UniProt Q14994); experiment: Northern blot of gene induction in CAR humanized mice; details: 500 mg/kg
T3 sequence (Q14994 1-348 isoform Q14994-2): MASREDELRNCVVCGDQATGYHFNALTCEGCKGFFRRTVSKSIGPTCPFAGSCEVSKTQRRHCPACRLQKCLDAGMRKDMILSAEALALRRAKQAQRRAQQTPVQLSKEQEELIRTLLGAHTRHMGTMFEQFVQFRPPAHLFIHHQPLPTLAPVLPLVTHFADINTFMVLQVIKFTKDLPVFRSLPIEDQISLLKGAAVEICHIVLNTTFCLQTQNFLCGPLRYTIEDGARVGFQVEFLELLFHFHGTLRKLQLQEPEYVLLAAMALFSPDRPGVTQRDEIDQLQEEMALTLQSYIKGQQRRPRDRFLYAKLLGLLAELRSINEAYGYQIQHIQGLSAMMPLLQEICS
Protocol: CAR humanized mice (n=3) were treated with 500 mg/kg APAP or vehicle. After two hours, total liver RNA was prepared and subjected to Northern blot analysis with indicated probes.

[4] = test system: CYP2E1, CYP1A2, CYP3A11, GSTPi; experiment: Northern blot of APAP metabolizing genes in liver of wild-type and CAR null mice; details: mouse, in vivo, 500 mg/kg, 2 h
Protocol: CAR (+/+) or CAR (−/−) animals pretreated with phenobarbital (PB), TCPOBOP (TC), or vehicle alone were administered a 250 mg/kg dose of APAP by intraperitoneal injection (n=5–7 per treatment group) (FIG. 11A). […] Liver sections from different treatments were examined by histological staining (FIG. 11B). Liver samples from all treated animals were analyzed but only representative histology is presented. […] CAR (+/+) or CAR (−/−) animals were pretreated with PB, TCPOBOP (TC), or vehicle alone for three days (FIG. 11C). […] Liver samples treated as indicated were collected two hours after APAP and GSH levels were measured (n=5–7) (FIG. 11D).
CAR (+/+) and CAR (−/−) animals were given 250 mg/kg, 500 mg/kg, or 800 mg/kg doses of APAP, respectively (FIG. 12A). […] Total liver RNA was prepared from 500 mg/kg APAP treated CAR (+/+) and CAR (−/−) livers at 0 and 2 hours as indicated. […] The same blot was stripped and re-probed with β-actin as loading control.
For histologic examination of the treated mice, the left lobe of the livers was removed and immediately fixed in 4% formaldehyde-PBS solution, embedded in paraffin, sectioned at 5 μm, and stained with hematoxylin and eosin. Samples were examined under a light microscope. For RNA studies, total RNA was extracted using TRIzol Reagent (Invitrogen Life Technologies, Carlsbad, Calif.) according to the manufacture's instruction. Equivalent amount of RNA from 3–5 mice were pooled and 10 μg of each sample was subjected to northern blot analysis. […] Hepatic non-protein thiol was measured as an indication of hepatic GSH content. Mice were sacrificed two hours after intraperitoneal injection with APAP. […] Supernatant (0.5 ml) was mixed with 1.5 ml 0.1 mM Ellman's reagent [5,5′-dithio-bis(2-nitrobenzoic acid)] […] Absorbance was read at 412 nm using GSH solutions as quantitative standards.

[5] = test system: wild-type and CAR knockout mice; experiment: APAP toxicity after pretreatment with inducers (serum ALT, histology); type: in vivo, mouse; details: mouse, in vivo
Protocol: CAR (+/+) or CAR (−/−) animals pretreated with phenobarbital (PB), TCPOBOP (TC), or vehicle alone were administered a 250 mg/kg dose of APAP by intraperitoneal injection (n=5–7 per treatment group) (FIG. 11A). Serum was collected and alanine aminotransferase (ALT) levels were measured after 24 hours. Liver sections from different treatments were examined by histological staining (FIG. 11B). Liver samples from all treated animals were analyzed but only representative histology is presented. […] CAR (+/+) or CAR (−/−) animals were pretreated with PB, TCPOBOP (TC), or vehicle alone for three days (FIG. 11C). […] Liver samples treated as indicated were collected two hours after APAP and GSH levels were measured (n=5–7) (FIG. 11D).
The effect of PB and the potent CAR agonist TCPOBOP on APAP toxicity was examined in wild-type and CAR knockout mice. Both strains of mice were treated with inducers or the vehicle control, followed by 250 mg/kg APAP. For these studies, mice were kept in a pathogen-free animal facility under standard 12 hour light/12 hour dark cycle and fed standard rodent chow and water ad libitum. At least five mice between 8 and 10 weeks old were used in each treatment group. For 3-day PB (100 mg/kg) treatment, mice were injected intraperitoneally three times, one injection per day. TCPOBOP (3 mg/kg) and/or APAP were injected intraperitoneally. Phenobarbital and TCPOBOP were suspended or dissolved in corn oil, and APAP was dissolved in basic PBS (pH=11). PB and APAP were purchased from Sigma (St Louis, Mo.); TCPOBOP was a gift from Dr. Stephen Safe.
For histologic examination of the treated mice, the left lobe of the livers was removed and immediately fixed in 4% formaldehyde-PBS solution, embedded in paraffin, sectioned at 5 μm, and stained with hematoxylin and eosin. Samples were examined under a light microscope. For RNA studies, total RNA was extracted using TRIzol Reagent (Invitrogen Life Technologies, Carlsbad, Calif.) according to the manufacture's instruction. Equivalent amount of RNA from 3–5 mice were pooled and 10 μg of each sample was subjected to northern blot analysis. […] Preparation of probes for CYP2B10 and CYP3A11 were described as previously (Wei et al., Nature 407:920–923, 2000 and Zelko et al., Mol Cell Biol 21:2838–2846, 2001). PCR primers used were: CYP1A2: 5′-[…]-3′ (SEQ ID NO: 19) and 5′-[…]-3′ (SEQ ID NO: 20), CYP2E1: 5′-[…]-3′ (SEQ ID NO: 21) and 5′-[…]-3′ (SEQ ID NO: 22), GSTPi: 5′-[…]-3′ (SEQ ID NO: 23) and 5′-[…]-3′ (SEQ ID NO: 24). Hepatic non-protein thiol was measured as an indication of hepatic GSH content. Mice were sacrificed two hours after intraperitoneal injection with APAP. Livers were removed and immediately homogenized in four volumes of 5% trichloroacetic acid and then centrifuged at 1,600×g for 15 minutes. Supernatant (0.5 ml) was mixed with 1.5 ml 0.1 mM Ellman's reagent [5,5′-dithio-bis(2-nitrobenzoic acid)] (Sigma, St Louis, Mo.) and allowed to stand at room temperature for 15 minutes. Absorbance was read at 412 nm using GSH solutions as quantitative standards.

PXR = biological target: T4, PXR (Mus musculus, UniProt O54915); details: cited from earlier work
T4 sequence (O54915 1-431): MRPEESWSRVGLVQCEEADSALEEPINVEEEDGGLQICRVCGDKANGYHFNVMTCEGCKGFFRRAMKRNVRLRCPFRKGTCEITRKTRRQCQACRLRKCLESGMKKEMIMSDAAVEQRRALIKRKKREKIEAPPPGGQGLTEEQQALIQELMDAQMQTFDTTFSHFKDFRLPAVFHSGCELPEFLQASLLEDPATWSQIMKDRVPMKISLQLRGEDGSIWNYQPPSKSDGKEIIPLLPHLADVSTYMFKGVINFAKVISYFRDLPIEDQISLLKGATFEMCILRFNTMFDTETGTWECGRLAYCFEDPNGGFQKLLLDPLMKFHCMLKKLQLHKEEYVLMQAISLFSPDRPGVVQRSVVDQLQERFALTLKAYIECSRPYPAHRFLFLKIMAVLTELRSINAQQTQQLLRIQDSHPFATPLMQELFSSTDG

[6] = test system: wild-type and CAR null mice; details: mouse, in vivo
From the text: To rule out the possibility that the CAR knockout animals are somehow resistant to NAPQI, the metabolite was directly injected into the livers of both wild-type and CAR null mice, and serum ALT levels were increased 5 to 10 fold in both. Thus, that both increased NAPQI production and GSH depletion may contribute to xenobiotic induced APAP toxicity.

human CAR [7] = biological target: T3, human CAR; details: cited from earlier work
CAR [8] = experiment: Hepatoprotection after APAP (serum ALT, histology)
Protocol: as §1, §2

CAR [9] = biological target: T5, CAR (Mus musculus, UniProt O35627); experiment: Hepatoprotection after APAP (serum ALT, histology)
T5 sequence (O35627 1-358 M138L): T1 sequence (O35627 1-358 M138L)
Protocol: as §1, §2

murine CAR receptor [10] = biological target: T6, murine CAR receptor (Mus musculus, UniProt O35627, M138L); details: cited from earlier work
T6 sequence (O35627 1-358 M138L): T1 sequence (O35627 1-358 M138L)

[11] = CAR humanized mice, two hours, densitometry

SMILES: CC(=O)N[C@@H](CS)C(=O)O [N-acetylcysteine]
protective effect, androstanol compared with N-acetylcysteine (CAR [1]): very similar

activation of human CAR (human CAR [3]; CAR humanized mice): human CAR is activated by APAP
induction of CYP1A2 mRNA (human CAR [3]; [11]): 1.8 fold
induction of CYP3A11 mRNA (human CAR [3]; [11]): 2.4 fold
induction of GSTPi mRNA (human CAR [3]; [11]): 1.8 fold
expression of CYP1A2, CYP3A11 and GSTPi (human CAR [3]; humanized mice): increased expression
induction of CYP1A2 mRNA [4]: approximately 2.8 fold
induction of CYP3A11 mRNA [4]: ~4.4 fold
induction of GSTPi mRNA [4]: ~3.9 fold
SMILES: CC(=O)Nc1ccc(O)cc1 [APAP, N-acetyl-p-aminophenol]
CAR agonist function (murine CAR receptor [2]): neither APAP nor NAPQI functions as a CAR agonist

SMILES: CC(=O)[C@H]1[C@H](C#N)C[C@H]2[C@@H]3CC=C4C[C@@H](O)CC[C@]4(C)[C@H]3CC[C@@]21C [PCN, 5-pregnen-3b-ol-20-one-16a-carbonitrile]
sensitivity to APAP [5]: increase in sensitivity to APAP comparable to that observed with TCPOBOP pretreatment
PXR agonism (PXR): strong PXR agonist

SMILES: CC(=O)N=C1C=CC(=O)C=C1 [NAPQI, N-acetyl-p-benzoquinone imine]
CAR agonist function (murine CAR receptor [2]): neither APAP nor NAPQI functions as a CAR agonist
increase of serum ALT levels [6]: 5-10 fold

SMILES: Clc1ccccc1C(c1ccccc1)(c1ccccc1)n1ccnc1 [clotrimazole]
activity on human CAR receptor (human CAR [7]): inverse agonist of human

SMILES: C[C@@]12CCC[C@H]1[C@@H]1CC[C@H]3C[C@H](O)CC[C@]3(C)[C@H]1CC2 [androstanol, 5α-androstan-3α-ol]
hepatotoxicity, treatment after APAP (CAR [8]; CAR knockout animals, APAP 500 mg/kg, androstanol 100 mg/kg i.p.): did not block toxicity
serum ALT, androstanol and APAP versus APAP alone (CAR [8]; CAR −/− animals): somewhat higher
ALT levels, CAR (+/+) versus CAR (−/−) animals (CAR [8]; androstanol at one and three hours after APAP 500 mg/kg): significantly lower ALT levels
APAP toxicity after pretreatment (CAR [9]; wild-type mice): decreases APAP toxicity
serum ALT, treatment three hours after APAP (CAR [9]; wild-type mice relative to untreated wild-type): somewhat lower serum ALT levels
hepatotoxicity, treatment one hour after APAP (CAR [9]; wild-type mice, APAP 500 mg/kg, androstanol 100 mg/kg i.p.): blocked hepatotoxicity; also recorded: nearly complete absence of hepatotoxicity
protective effect, treatment five hours after APAP (CAR [1]; relative to wild-type control): no protective effect
protective effect, androstanol compared with N-acetylcysteine (CAR [1]): very similar
activity on murine CAR receptor (murine CAR receptor [10]): can be blocked
activity on human CAR receptor (human CAR [7]): not human CAR
